Values of other authors, collected in US20020019373A1, “Combinations of bisphosphonates and estrogenic agents” (American Home Products Corporation, priority 2000, published 2002).

System: Paget's disease of the bone
Details: approved by the FDA for Paget's disease of the bone (30-mg tablets)

O=P(O)(O)C(O)(Cc1cccnc1)P(=O)(O)O [Risedronate]
effectiveness in clinical trials: effective
